Series [1] has as its system B-16 mouse melanoma cells. As to the kind of experiment: Inhibitory effect against melanin biosynthesis in B-16 mouse melanoma cell. It is filed as cell-based. The following applies: 72 h, read-out: IC50 (inhibition of melanin biosynthesis). The protocol: Inhibitory Effect Against Melanin Biosynthesis in B-16 Mouse Melanoma Cell
B-16 mouse melanoma cells were cultured to a density of 10^6 cells/dish in culture media compounds in various concentrations were respectively added thereto and then cultured for 3 days. The cells were separated from the culture dish by the treatment with trypsin and then centrifuged to extract melanin(wherein a pellet was extracted using 2N perchloric acid). 1 ml of 1N aqueous sodium hydroxide solution was added to the melanin extracted and the resulting mixture was heated to dissolve melanrin. The absorbance at 400 nm was measured by a spectrophotometer and the amount of the melanin produced was represented by the absorbance per unit cell numbers(10^6 cell).

For series [2] the following is noted: background; cited from earlier work.
For series [3], the target named is tyrosinase. As to the kind of experiment: Inhibitory activity against tyrosinase (mushroom enzyme, L-tyrosine substrate, absorbance at 475 nm). It is filed as biochemical, mushrooms. The following applies: pH 6.8, 37° C., 10 minutes. How it is done: That is, a sample is introduced into a microplate, to which are added a phosphate buffer solution(pH 6.8) and a L-tyrosine solution.
Inhibitory Activity Against Tyrosinase
Enzyme tyrosinase extracted from mushrooms(manufactured by Sigma) was used in the present experiment. First, a substrate L-tyrosine was dissolved in phosphate buffer solution(0.05M, pH 6.8) to a concentration of 1.5 mM and then 0.01 ml of this solution was introduced to a 0.3 ml cuvette in a spectrophotometry. Dopa as a cofacter was prepared as a solution in a concentration of 0.06 mM and 0.01 ml of this dopa solution was added to the substrate solution. To the resulting mixture were added the inhibitor of formula (I) and phosphate buffer solution to a total volume of 0.31 ml. The reaction was started by adding 0.1 ml of an enzyme solution in which tyrosinase was dissolved in phosphate buffer solution in a concentration of 60 U/ml. 0.1 ml of phosphate buffer solution instead of the enzyme solution was added to the blank sample. The reaction was carried out for 10 minutes at 37° C. and then absorbance at 475 nm was measured using Spectrophotometer (Beckman DU-7500).
[formula] in the above formula A represents absorbance at 475 nm when the inhibitor is added, and
B represents absorbance at 475 nm when the inhibitor is not added.

The conditions of series [4]: literature, J. Soc. Cosmet. Chem., 42, 361, 1991; cited from earlier work.
[5] abbreviates: B-16 mouse melanoma cells, 3 days, absorbance at 400 nm.

≈ marks a conversion by molar mass, not a printed value. Where two headings read alike, the source gives them in different places.

What is called IC50 is the concentration at which inhibition is half-maximal. `OC[C@H]1O[C@@H](Oc2ccc(O)cc2)[C@H](O)[C@@H](O)[C@@H]1O` [Arbutin, reference compound]: the IC50 in series [1] (setting [5]) is 300 mg/L (≈ 1100 µM). In addition, the whitening effect result in series [2] is “little whitening effect”. With `Cc1c(C)c(O)c(C(O)CCc2ccc(O)cc2O)c(C)c1O` (centres unmarked) [Compound 1, 4-[3-hydroxy-3-(2,5-dihydroxy-3,4,6-trimethyl-phenyl)-propyl]-benzene-1,3-diol], the “IC50 (inhibitory activity against tyrosinase)” value in series [3] was found to be 0.5 mg/L (≈ 1.57 µM). Further, in series [1] (setting [5]), the half-inhibitory concentration (IC50) came to 10 mg/L (≈ 31.4 µM).

Consider `Cc1c(C)c(O)c(CCCc2ccc(O)cc2O)c(C)c1O` [Compound 2, 4-13-(2,5-dihydroxy-3,4,6-trimethyl-phenyl)-propyll-benzene-1,3-diol], for which the “IC50 (inhibitory activity against tyrosinase)” value in series [3] is 1 mg/L (≈ 3.31 µM). The 50% inhibitory concentration (IC50) in series [1] (setting [5]) is 5 mg/L (≈ 16.5 µM).

Consider `COc1c(C)c(C)c(O)c(C)c1C(O)CCc1ccc(O)cc1O` (centres unmarked) [Compound 3, 4-[3-hydroxy-3-(5-hydroxy-2-methoxy-3,4,6-trimethyl-phenyl)-propyl]-benzene-1,3-diol], for which, in series [3], the “IC50 (inhibitory activity against tyrosinase)” value was 50 mg/L (≈ 150 µM). In series [1] (setting [5]), the IC50 worked out at 40 mg/L (≈ 120 µM). With `COc1c(C)c(C)c(O)c(C)c1CCCc1ccc(O)cc1O` [Compound 4], the “IC50 (inhibitory activity against tyrosinase)” value in series [3] is 20 mg/L (≈ 63.2 µM). Also, the half-maximal inhibitory concentration (IC50) in series [1] (setting [5]) was 45 mg/L (≈ 142 µM). The matching figures for `COc1c(C)c(C)c(O)c(C(O)CCc2ccc(O)cc2O)c1C` (centres unmarked) [Compound 5, 4-[3-hydroxy-3-(2-hydroxy-5-methoxy-3,4,6-trimethyl-phenyl)-propyl]-benzene-1,3-diol]: 0.1 mg/L (≈ 0.301 µM) and 5 mg/L (≈ 15 µM). Regarding `COc1c(C)c(C)c(O)c(CCCc2ccc(O)cc2O)c1C` [Compound 6, 4-[3-(2-hydroxy-5-methoxy-3,4,6-trimethyl-phenyl)-propyl]-benzene-1,3-diol], the “IC50 (inhibitory activity against tyrosinase)” value in series [3] is 0.1 mg/L (≈ 0.316 µM). In addition, the IC50 in series [1] (setting [5]) is 10 mg/L (≈ 31.6 µM). For `CCOc1c(C)c(C)c(O)c(C(O)CCc2ccc(O)cc2O)c1C` (centres unmarked) [Compound 7], in that order: 1.0 mg/L (≈ 2.89 µM) and 20 mg/L (≈ 57.7 µM). For the compound `Cc1c(C)c2c(c(C(O)CCc3ccc(O)cc3O)c1O)CCC(C)(C)O2` (centres unmarked) [Compound 8, 4-[3-hydroxy-3-(6-hydroxy-2,2,7,8-tetramethyl-chroman-5-yl)-propyl]-benzene-1,3-diol], the “IC50 (inhibitory activity against tyrosinase)” value in series [3] stood at 0.3 mg/L (≈ 0.805 µM). The IC50 in series [1] (setting [5]) stood at 2 mg/L (≈ 5.37 µM).

Take `Cc1c(C)c2c(c(CCCc3ccc(O)cc3O)c1O)CCC(C)(C)O2` [Compound 9, 4-[3-(6-hydroxy-2,2,7,8-tetramethyl-chroman-5-yl)-propyl]-benzene-1,3-diol]: in series [3], the “IC50 (inhibitory activity against tyrosinase)” value is 0.3 mg/L (≈ 0.842 µM). In addition, in series [1] (setting [5]), the concentration for half-maximal inhibition (IC50) was determined as 3 mg/L (≈ 8.42 µM).

In the case of `Oc1ccc(O)cc1` [Hydroquinone, reference compound], the “IC50 (inhibitory activity against tyrosinase)” value in series [3] amounted to 0.5 mg/L (≈ 4.54 µM). Further, the side effects result in series [4] was “degeneration or lethal mutation of melanin, damage of the cellular function”. For `O=c1cc(CO)occ1O` [Kojic acid, reference compound], the 50% inhibitory concentration (IC50) in series [1] (Mus musculus) was determined as 15 mg/L (≈ 106 µM).
